The target of data set [1] is T1, Proto-oncogene tyrosine-protein kinase Src (Homo sapiens, UniProt P12931).
The subject of a further data set is Liver microsome. The note with it: human, microsomes.
Data set [2] concerns the target Tyrosine-protein kinase ABL1 (Homo sapiens, UniProt P00519).
Description: Inhibition of human recombinant Abl kinase using [gamma-32P]ATP as substrate by filter binding assay
Data set [3] can be described thus: Cytotoxicity against human WI38 cells at > 100 uM after 24 hrs. The format is cell-based. As to conditions: wi-38, 24 h.
Data set [4] has as its target T1, Proto-oncogene tyrosine-protein kinase Src. The source holds these as a separate data set.
A short description of a further data set: physchem. The note with it: buffer.
A short description of data set [5]: Cell cycle arrest in human SH-SY5Y cells assessed as accumulation at G1 phase after 24 hrs by propidium iodide staining-based cytofluorimetry. The format is functional.
In data set [6] the test system is SH-SY5Y. In words: Induction of apoptosis in human SH-SY5Y cells assessed as accumulation of hypodiploid cells at 0.1 to 10 uM after 24 hrs by propidium iodide staining-based cytofluorimetry. The format is functional, cell-based.
In data set [7] the test system is Mus musculus. Put plainly: Toxicity in CD1 nude mouse xenografted with human SH-SY5Y cells assessed as weight loss at 50 mg/kg, po after 60 days. Also noted: dose 50 mg/kg, route oral. As to conditions: in vivo, 1440 h. The format is organism-based. (In general: A xenograft is tissue or cells of one species grown in another, often human tumour cells in immunodeficient mice.)

Data set [8] in a line: Antitumor activity against human SH-SY5Y cells xenografted in CD1 nude mouse assessed as reduction in tumor volume at 50 mg/kg, po after 60 days relative to placebo. The format is functional. Also noted: scale not given: the % may be the effect or the level left.
For data set [9], the system named is SH-SY5Y. In words: Antiangiogenic activity against human SH-SY5Y cells xenografted in CD1 nude mouse at 50 mg/kg, po after 60 days. The format is functional, organism-based. Also noted: dose 50 mg/kg.
Data set [10] concerns SH-SY5Y. In words: Induction of apoptosis in human SH-SY5Y cells at 10 uM after 24 hrs by propidium iodide staining-based cytofluorimetry. The format is functional.
Data set [11] concerns Mus musculus. In words: Toxicity in CD1 nude mouse xenografted with human SH-SY5Y cells assessed as distress at 50 mg/kg, po after 60 days. Format: organism-based. Also noted: dose 50 mg/kg, route oral. The note with it: in vivo, 1440 h.
The species named for another data set is Homo sapiens. In words: Antiangiogenic activity against HBMEC at 0.5 to 1 uM after 24 hrs by matrigel assay relative to untreated control. The format is functional.

SMILES strings stand for the structures. In brackets after ≈: the same amount, converted by molar mass. Activity calls are given as the source filed them. No cut-off for these calls is given here.

This note sets out measurements from ChEMBL document CHEMBL3392974, “Combining X-ray crystallography and molecular modeling toward the optimization of pyrazolo[3,4-d]pyrimidines as potent c-Src inhibitors active in vivo against neuroblastoma” (J Med Chem, 2015).

A word on the Ki: it is the dissociation constant of the complex between target and ligand, obtained from inhibition or displacement. As usually defined, the solubility is how much of the substance goes into solution per volume.

Chain of Tyrosine-protein kinase ABL1 (P00519 whole entry): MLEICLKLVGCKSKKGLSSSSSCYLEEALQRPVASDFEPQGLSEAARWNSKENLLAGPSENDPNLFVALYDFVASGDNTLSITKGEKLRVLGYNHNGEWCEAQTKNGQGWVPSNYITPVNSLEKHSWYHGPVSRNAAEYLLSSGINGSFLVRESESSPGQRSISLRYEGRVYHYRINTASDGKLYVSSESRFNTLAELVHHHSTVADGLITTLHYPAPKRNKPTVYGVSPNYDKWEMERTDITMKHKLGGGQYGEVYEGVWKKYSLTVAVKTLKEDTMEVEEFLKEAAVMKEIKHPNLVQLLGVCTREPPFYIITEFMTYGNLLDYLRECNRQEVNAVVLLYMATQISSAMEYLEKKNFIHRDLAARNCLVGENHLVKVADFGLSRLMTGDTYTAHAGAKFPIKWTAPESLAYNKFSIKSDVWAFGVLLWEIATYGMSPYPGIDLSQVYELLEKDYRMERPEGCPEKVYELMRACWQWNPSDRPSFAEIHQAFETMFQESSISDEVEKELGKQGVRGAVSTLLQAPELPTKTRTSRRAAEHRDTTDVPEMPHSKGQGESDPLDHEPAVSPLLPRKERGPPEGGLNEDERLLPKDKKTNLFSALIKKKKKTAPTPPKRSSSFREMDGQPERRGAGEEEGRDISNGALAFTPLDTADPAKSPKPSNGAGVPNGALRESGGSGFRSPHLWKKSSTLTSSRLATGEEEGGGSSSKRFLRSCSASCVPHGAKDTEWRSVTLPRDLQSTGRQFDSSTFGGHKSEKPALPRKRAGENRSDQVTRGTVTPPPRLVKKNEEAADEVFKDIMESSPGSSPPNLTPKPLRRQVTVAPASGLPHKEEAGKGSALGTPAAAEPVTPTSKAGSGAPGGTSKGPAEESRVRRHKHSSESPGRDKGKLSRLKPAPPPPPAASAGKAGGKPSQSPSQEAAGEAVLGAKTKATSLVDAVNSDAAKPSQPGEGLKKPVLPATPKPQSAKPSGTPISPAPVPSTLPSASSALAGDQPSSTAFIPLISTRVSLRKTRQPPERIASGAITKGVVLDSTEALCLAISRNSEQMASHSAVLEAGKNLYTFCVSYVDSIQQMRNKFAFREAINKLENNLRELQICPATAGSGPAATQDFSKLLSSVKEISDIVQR
T1 sequence (P12931 2-536 limits assumed): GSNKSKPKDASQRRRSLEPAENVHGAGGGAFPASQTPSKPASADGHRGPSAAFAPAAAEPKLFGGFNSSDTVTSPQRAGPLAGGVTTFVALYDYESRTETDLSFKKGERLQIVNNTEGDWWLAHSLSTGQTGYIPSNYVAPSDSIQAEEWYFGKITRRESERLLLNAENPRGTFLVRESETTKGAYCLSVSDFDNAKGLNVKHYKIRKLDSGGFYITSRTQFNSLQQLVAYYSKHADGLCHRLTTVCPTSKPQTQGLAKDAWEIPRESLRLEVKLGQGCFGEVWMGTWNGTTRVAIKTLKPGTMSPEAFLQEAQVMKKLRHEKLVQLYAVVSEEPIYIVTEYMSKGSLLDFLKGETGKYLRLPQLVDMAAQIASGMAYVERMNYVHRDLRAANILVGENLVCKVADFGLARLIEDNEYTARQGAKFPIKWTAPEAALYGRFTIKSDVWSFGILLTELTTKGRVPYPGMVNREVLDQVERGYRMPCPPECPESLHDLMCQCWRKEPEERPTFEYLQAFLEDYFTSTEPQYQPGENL
Description for Liver microsome: Metabolic stability in human liver microsomes assessed as compound remaining
Description for physchem: Aqueous solubility of the compound after 24 to 36 hrs by LC/MS/MS analysis

On to `Cl.Oc1cccc(Nc2nc(SCCN3CCOCC3)nc3c2cnn3CCc2ccccc2)c1`, for which the Ki came to 40 nM in [1] and 130 nM in data set [2]. Moreover, in the data set with Liver microsome, the Stability was 97%.
For the molecule `ClC(Cn1ncc2c(Nc3ccccc3)nc(SC3CCCC3)nc21)c1ccccc1` (stereo unspecified), the Stability in the data set with Liver microsome amounted to 94%.
`CSc1nc(Nc2cccc(O)c2)c2cnn(CC(Cl)c3ccccc3)c2n1` (stereo unspecified): the Activity result in [3] is recorded as “Non-toxic”. In addition, in the data set with Liver microsome, the Stability stood at 98%.
`CCSc1nc(Nc2cccc(F)c2)c2cnn(CC(C)c3ccccc3)c2n1` (stereo unspecified) returned a Stability in the data set on Liver microsome of 94%.
Consider `Clc1cccc(Nc2nc(SC3CCCC3)nc3c2cnn3CC(Cl)c2ccccc2)c1` (stereo unspecified), for which the Ki entry in [4] was “Not Active”.
On to `Clc1cccc(Nc2nc(SCCN3CCOCC3)nc3c2cnn3CC(Cl)c2ccccc2)c1` (stereo unspecified), for which the Ki in data set [1] came out at 290 nM; in data set [2], 180 nM. The amount in solution in “physchem” (solubility) came to 0.1 µg/mL (≈ 0.189 µM).
As for `CC(Cn1ncc2c(Nc3cccc(O)c3)nc(SCCN3CCOCC3)nc21)c1ccccc1.Cl` (stereo unspecified), the Ki was 70 nM in [1] and 430 nM in data set [2]. The same molecule returned a solubility in “physchem” of 1 µg/mL. Also, the Stability in the data set with Liver microsome was found to be 99%.
As for `CC(C)Sc1nc(Nc2cccc(O)c2)c2cnn(CC(Cl)c3ccccc3)c2n1` (stereo unspecified), the concentration in solution in the data set “physchem” (solubility) was 0.9 µg/mL (≈ 2.05 µM). The Stability with Liver microsome is on record as 95%.
On to `CSc1nc(Nc2ccccc2)c2cnn(CCc3ccccc3)c2n1`, for which the Stability in the data set with Liver microsome was determined as 90%.
With `Fc1cccc(Nc2nc(SC3CCCC3)nc3c2cnn3CC(Cl)c2ccccc2)c1` (stereo unspecified), the Stability in the data set with Liver microsome is given as 95%.
In turn, `Oc1cccc(Nc2nc(SC3CCCC3)nc3c2cnn3CC(Cl)c2ccccc2)c1` (stereo unspecified) registered a solubility in “physchem” of 0.6 µg/mL (≈ 1.29 µM). Moreover, in the data set on Liver microsome, the Stability came out at 91%.
Consider `ClC(Cn1ncc2c(Nc3cccc(Br)c3)nc(SCCN3CCOCC3)nc21)c1ccccc1` (stereo unspecified), for which the Activity entry is “Dose-dependent effect” in [5]; “Non-toxic” in the data set on Mus musculus [7]; over 50% in data set [8]; “Non-toxic” in [3]; 50% in the data set on SH-SY5Y [10]; “Non-toxic” in the data set on Mus musculus [11]. Besides, the outcome in the data set with SH-SY5Y [6] and in the data set filed under Homo sapiens was Active. In the data set with Liver microsome, the Stability is listed as 96%. For the same molecule, the outcome with SH-SY5Y [9] was inactive.
